Measured values published in ChEMBL document CHEMBL3872245, “A novel curcumin derivative which inhibits P-glycoprotein, arrests cell cycle and induces apoptosis in multidrug resistance cells” (Bioorg Med Chem, 2017).
Calls of active or inactive are those of the source. No cut-off for these calls is given here.

How the values were obtained:
[1] = Antiproliferative activity against human K562 cells measured after 48 hrs by Presto blue assay; format: functional; conditions: K562, 48 h
[2] = system: H460; assay: Inhibition of P-gp in drug resistant human H460 cells assessed as reduction in cell viability measured after 48 hrs by sulforhodamine B assay; format: cell-based
[3] = system: K562; assay: Inhibition of P-gp in doxorubicin resistant human K562 cells assessed as reduction in cell viability measured after 48 hrs by Presto blue assay; format: cell-based
[4] = Antiproliferative activity against human NCI-H460 cells measured after 48 hrs by sulforhodamine B assay; format: functional; conditions: NCI-H460, 48 h
[5] = Stability of the compound at room temperature at 10^-4 M incubated for 6 to 12 days under dark condition by HPLC method; format: physicochemical; conditions: 100 µM
[6] = Down regulation of cyclin B1 expression in doxorubicin resistant human K562 cells at 20 to 40 uM measured after 48 hrs by Western blot method; format: functional, cell-based
[7] = Cell cycle arrest in doxorubicin resistant human K562 cells assessed as decrease in G2/M phase at 30 to 40 uM measured after 48 hrs by propidium iodide staining based flow cytometry; format: functional
[8] = Chemical stability of the compound in pH 9.1 sodium boric acid buffer at 10^-4 M incubated for overnight by HPLC method; format: physicochemical; conditions: pH 9.1, 100 µM
[9] = system: K562; assay: Induction of apoptosis in doxorubicin resistant human K562 cells at 40 uM by Annexin V-FITC/propidium iodide staining based flow cytometry; format: functional
[10] = system: K562; assay: Induction of apoptosis in doxorubicin resistant human K562 cells decrease in pro-caspase 3 level at 20 to 40 uM measured after 48 hrs by Western blot method; format: functional, cell-based
[11] = system: K562; assay: Induction of apoptosis in doxorubicin resistant human K562 cells at 20 uM by Annexin V-FITC/propidium iodide staining based flow cytometry; format: functional
[12] = Stability of the compound in RPMI medium at 1.5 10^-3 M incubated for 5 to 30 mins under dark condition by HPLC method; format: physicochemical
[13] = Stability of the compound in HEPES medium at 1.5 10^-3 M incubated for 5 to 30 mins under dark condition by HPLC method; format: physicochemical
[14] = Chemical stability of the compound in pH 6.7 potassium phosphate buffer at 10^-4 M incubated for overnight by HPLC method; format: physicochemical; conditions: pH 6.7, 100 µM
[15] = Cell cycle arrest in doxorubicin resistant human K562 cells assessed as accumulation at G0/G1 phase at 30 to 40 uM measured after 48 hrs by propidium iodide staining based flow cytometry; format: functional
[16] = system: K562; assay: Induction of apoptosis in doxorubicin resistant human K562 cells at 30 uM by Annexin V-FITC/propidium iodide staining based flow cytometry; format: functional
[17] = Cell cycle arrest in doxorubicin resistant human K562 cells assessed as decrease in S phase at 20 uM measured after 48 hrs by propidium iodide staining based flow cytometry; format: functional
[18] = Stability of the compound at -20 degreeC at 10^-4 M incubated for 6 to 12 days under dark condition by HPLC method; format: physicochemical; conditions: 100 µM
[19] = Cell cycle arrest in doxorubicin resistant human K562 cells assessed as increase in G2/M phase at 20 uM measured after 48 hrs by propidium iodide staining based flow cytometry; format: functional
[20] = system: K562; assay: Induction of apoptosis in doxorubicin resistant human K562 cells assessed as increase in PARP-1 cleavage at 20 to 40 uM measured after 48 hrs by Western blot method; format: functional, cell-based
[21] = Chemical stability of the compound in pH 7.4 phosphate buffered saline at 10^-4 M incubated for overnight by HPLC method; format: physicochemical; conditions: buffer, pH 7.4, 100 µM
[22] = Down regulation of p-gp expression in doxorubicin resistant human K562 cells at 20 to 30 uM measured after 48 hrs by Western blot method; format: functional, cell-based
[23] = Stability of the compound at 4 degreeC at 10^-4 M incubated for 6 to 12 days under dark condition by HPLC method; format: physicochemical; conditions: 100 µM
[24] = Cell cycle arrest in doxorubicin resistant human K562 cells assessed as decrease in G0/G1 phase at 20 uM measured after 48 hrs by propidium iodide staining based flow cytometry; format: functional
[25] = Chemical stability of the compound in pH 5 sodium acetate buffer at 10^-4 M incubated for overnight by HPLC method; format: physicochemical; conditions: pH 5, 100 µM
[26] = Up regulation of p53 expression in doxorubicin resistant human K562 cells at 20 to 40 uM measured after 48 hrs by Western blot method; format: functional, cell-based
[27] = Chemical stability of the compound in pH 1 HCl buffer at 10^-4 M incubated for 75 mins by HPLC method; format: physicochemical; conditions: pH 1, 1.25 h, 100 µM
[28] = system: K562; assay: Inhibition of P-gp in doxorubicin resistant human K562 cells assessed as increase in accumulation of rhodamine 123 at 10 uM measured after 1 hr by flow cytometry; format: cell-based
[29] = system: K562; assay: Inhibition of P-gp in doxorubicin resistant human K562 cells assessed as reduction in cell viability measured after 48 hrs by SRB assay; format: cell-based
[30] = Down regulation of cyclin B1 expression in doxorubicin resistant human K562 cells at 2.7 to 5.4 uM measured after 48 hrs by Western blot method; format: functional, cell-based
[31] = system: K562; assay: Induction of apoptosis in doxorubicin resistant human K562 cells at 5.4 uM by Annexin V-FITC/propidium iodide staining based flow cytometry; format: functional
[32] = Cell cycle arrest in doxorubicin resistant human K562 cells assessed as decrease in G0/G1 phase at 2.7 uM measured after 48 hrs by propidium iodide staining based flow cytometry; format: functional
[33] = Cell cycle arrest in doxorubicin resistant human K562 cells assessed as increase in G2/M phase at 2.7 uM measured after 48 hrs by propidium iodide staining based flow cytometry; format: functional
[34] = system: K562; assay: Induction of apoptosis in doxorubicin resistant human K562 cells at 4.1 uM by Annexin V-FITC/propidium iodide staining based flow cytometry; format: functional
[35] = Up regulation of p53 expression in doxorubicin resistant human K562 cells at 2.7 to 5.4 uM measured after 48 hrs by Western blot method; format: functional, cell-based
[36] = system: K562; assay: Induction of apoptosis in doxorubicin resistant human K562 cells assessed as decrease in pro-caspase 3 level at 2.7 to 5.4 uM measured after 48 hrs by Western blot method; format: functional, cell-based
[37] = Cell cycle arrest in doxorubicin resistant human K562 cells assessed as decrease in S phase at 2.7 uM measured after 48 hrs by propidium iodide staining based flow cytometry; format: functional
[38] = Cell cycle arrest in doxorubicin resistant human K562 cells assessed as accumulation at G2/M phase at 4.1 to 5.4 uM measured after 48 hrs by propidium iodide staining based flow cytometry; format: functional
[39] = system: K562; assay: Induction of apoptosis in doxorubicin resistant human K562 cells assessed as increase in PARP-1 cleavage at 2.7 to 5.4 uM measured after 48 hrs by Western blot method; format: functional, cell-based
[40] = system: K562; assay: Induction of apoptosis in doxorubicin resistant human K562 cells at 2.7 uM by Annexin V-FITC/propidium iodide staining based flow cytometry; format: functional
[41] = Down regulation of p-gp expression in doxorubicin resistant human K562 cells at 2.7 to 4.1 uM measured after 48 hrs by Western blot method; format: functional, cell-based

Structure (SMILES) | GI50 [1] [µM] | GI50 [2] [µM] | GI50 [3] [µM] | GI50 [4] [µM] | Stability [5] | Stability [8] | Stability [12] | Stability [13] | Stability [14] | Stability [18] | Stability [21] | Stability [23] | Stability [25] | Stability [27] | further results
COc1cc(/C=C/C(=O)CC(=O)/C=C/c2ccc(OCc3cn(CCO[C@@H]4O[C@H](COC(C)=O)[C@H](OC(C)=O)[C@H](OC(C)=O)[C@H]4NC(C)=O)nn3)c(OC)c2)ccc1OCc1cn(CCO[C@@H]2O[C@H](COC(C)=O)[C@H](OC(C)=O)[C@H](OC(C)=O)[C@H]2NC(C)=O)nn1 | > 150 | > 150 | > 150 | > 150 | – | – | – | – | – | – | – | – | – | – | –
COc1cc(/C=C/C(=O)CC(=O)/C=C/c2ccc(O)c(OC)c2)ccc1O [CURCUMIN] | 21.7 | 26 | 19.7 | 27.3 | Stable | Unstable | Stable | Stable | Unstable | Stable | Unstable | Stable | Unstable | Unstable | Activity [6]: Active; Activity [7]: Active; Activity [9]: 32%; Activity [10]: Active; Activity [11]: 11.8%; Activity [15]: Active; Activity [16]: 26.9%; Activity [17]: Active; Activity [19]: Active; Activity [20]: Active; Activity [22]: Active; Activity [24]: Active; Activity [26]: Active
C#CCOc1ccc(/C=C/C(C)=O)cc1OC | > 150 | 41.7 | 133 | 52.7 | – | – | – | – | – | – | – | – | – | – | –
COc1ccc(CCN(C)CCCC(C#N)(c2ccc(OC)c(OC)c2)C(C)C)cc1OC (stereo not drawn) | – | – | – | – | – | – | – | – | – | – | – | – | – | – | inhibition [28]: Active
COc1cccc2c1C(=O)c1c(O)c3c(c(O)c1C2=O)C[C@@](O)(C(=O)CO)C[C@@H]3O[C@H]1C[C@H](N)[C@H](O)[C@H](C)O1 [DOXORUBICIN] | 0.065 | > 0.15 | > 0.15 | 0.02 | – | – | – | – | – | – | – | – | – | – | GI50 [29]: 11.6 µM
COC(=O)COc1ccc(/C=C/C(C)=O)cc1OC | > 150 | > 150 | > 150 | > 150 | – | – | – | – | – | – | – | – | – | – | –
COc1cc(/C=C/C(=O)/C=C/c2ccc(O)c(OC)c2)ccc1O | 9.33 | 1.8 | 20.7 | 1.47 | Unstable | Stable | Stable | Stable | Stable | Unstable | Stable | Unstable | Stable | Stable | –
COc1cc(/C=C/C(C)=O)ccc1OCc1cn(CCO[C@@H]2O[C@H](COC(C)=O)[C@H](OC(C)=O)[C@H](OC(C)=O)[C@H]2NC(C)=O)nn1 | > 150 | > 150 | > 150 | > 150 | – | – | – | – | – | – | – | – | – | – | –
C=CCOc1ccc(/C=C/C(C)=O)cc1OC | 68.7 | 39.3 | 63.3 | 41.5 | – | – | – | – | – | – | – | – | – | – | –
COc1cc(/C=C/C(C)=O)ccc1O [DEHYDROZINGERONE] | 85.3 | 62.7 | 92 | 64.8 | Stable | Stable | Stable | Stable | Stable | Stable | Stable | Stable | Stable | Stable | –
C#CCOc1ccc(/C=C/C(=O)CC(=O)/C=C/c2ccc(OCC#C)c(OC)c2)cc1OC | 6.3 | 2.6 | 2.73 | 3.4 | Stable | Stable | Stable | Stable | Stable | Stable | Stable | Stable | Stable | Stable | Activity [30]: Active; inhibition [28]: Active; Activity [31]: 14.8%; Activity [32]: Active; Activity [33]: Active; Activity [34]: 11.3%; Activity [35]: Active; Activity [36]: Active; Activity [37]: Active; Activity [38]: Active; Activity [39]: Active; Activity [40]: 9.3%; Activity [41]: Active
COc1cc(/C=C/C(C)=O)ccc1OCCCNC(=O)OC(C)(C)C | > 150 | 41 | > 150 | 55.2 | – | – | – | – | – | – | – | – | – | – | inhibition [28]: Active
